Laboratory results reported in US5869460A, “Sulfated and phosphated saccharide derivatives, process for the preparation of the same and use thereof” (Sanwa Kaguku Kenkyusho Co., Ltd., priority 1995, dated 1999).

What was measured:
[1] = system: lung injury model, lgG immunocomplex; details: INT. IMMUNOL. 7, 1107 (1995); cited from earlier work
[2] = system: L-selectin; details: in vitro, plastic plate; BIOCHEM. BIOPHY. RES. COM. 190, 426 (1993); cited from earlier work
[3] = system: lung injury model, activation of whole body complements by CVF; details: INT. IMMUNOL. 7, 1107 (1995); cited from earlier work
[4] = system: lung damage model induced by cobra venom factor (CVF); infiltration in neutrocyte (myeloperoxidase); assay: Anti-inflammatory action to lung damage model induced by CVF: myeloperoxidase activity as index of infiltration in neutrocyte; assay type: in vivo, Lewis rats; details: for inhibition in vivo at 0.2 mg: Rattus norvegicus, iv, 0.5 h, read-out: Inhibition rate (%), myeloperoxidase activity as index of infiltration in neutrocyte
Method: (§1) Anti-inflammatory action to lung damage model induced by CVF Compounds obtained by Examples and an exemplary known compound (sulfatide) were selected as Test Compounds to check an inflammatory action thereof to a lung damage model induced by cobra venom factor (CVF), in accordance with the method described by M. S. Mulligan et al ["J. IMMUNOL.", Vol.151, page 6410 (1993); and "INT. IMMUNOL.", Vol. 7, page 1107 (1995)].
(§2) Namely, the test compound was intravenously injected by an amount of 0.2 mg/rat to test animals (Lewis rats, age of 8 weeks, 5 animals in each group). After lapsed 5 minutes from administration, CVF (20U/2 ml/kg) was administered in a tail vein, and after 30 minutes, a laparotomy was carried out under nembutal anesthesia to perfuse the lung with phosphate-buffered saline (PBS, pH7.4) by injecting the same from right ventricle and to exenterate the lung. The extracted lung was homogenized with phosphate buffer (pH 7.4), centrifuged to collect a supernatant, and determined absorbance which was admitted as index of bleeding (It measures an amount of hemoglobin and thus detection wave-length was set to 541 nm).
On the other hand, the precipitation obtained by centrifugation was sonicated in the presence of cetrimide and centrifuged to obtain a supernatant, an activity myeloperoxidase therein being measured as an index of infiltration in neutrocyte.
(§3) Each inhibition rate (%) was calculated by
(§4) 100×[1-(value of test compound-value of negative control)/(value of positive control-value of negative control)].

[5] = system: lung damage model induced by cobra venom factor (CVF); bleeding; assay: Anti-inflammatory action to lung damage model induced by CVF: index of bleeding (hemoglobin absorbance, 541 nm, in lung homogenate supernatant); assay type: in vivo, Lewis rats; details: for inhibition in vivo at 0.2 mg: Rattus norvegicus, iv, 0.5 h, read-out: Inhibition rate (%), index of bleeding
Method: as §1, §2, §3, §4

| Molecule | inhibition in vivo at 0.2 mg [4] | inhibition in vivo at 0.2 mg [5] | further results |
| --- | --- | --- | --- |
| CCCCCCCCCCCCCCC(CCCCCCCCCCCCCC)CO[C@@H]1O[C@H](CO)[C@H](O)[C@H](OS(=O)(=O)O)[C@H]1O [2-tetradesyl hexadesyl β-D-galactopyranoside 3-sulfate] |  |  | inflammation inhibition effect [1]: shows inflammation inhibition effect; binding specificity to L-selectin [2]: show a binding specificity to L-selectin; inflammation inhibition effect [3]: shows inflammation inhibition effect |
| CC(C)CO[C@@H]1O[C@H](COP(=O)(O)O)[C@H](OP(=O)(O)O)[C@H](OP(=O)(O)O)[C@H]1OP(=O)(O)O [Example 12, Octasodium 2-methylpropyl β-D-galactopyranoside 2,3,4,6-tetranhosphate] | 30% | 0% |  |
| CCCCCCCCCCCCCCC(CCCCCCCCCCCCCC)CO[C@@H]1O[C@H](COS(=O)(=O)O)[C@H](O)[C@H](OS(=O)(=O)O)[C@H]1O[C@@H]1O[C@@H](C)[C@@H](O)[C@@H](OS(=O)(=O)O)[C@@H]1O [Example 30, Trisodium 2-tetradecylhexadecyl O-α-L-fucopyranosyl-(1→2)-β-D-galactopyranoside 3,3',6-trisulfate] | 62% | 70% |  |
| CC(C)CO[C@@H]1O[C@H](CO)[C@H](O)[C@H](OS(=O)(=O)O)[C@H]1O [Example 1-1, Sodium 2-methylpropyl β-D-galactopyranoside 3-sulfate] | 22% | 22% |  |
| CCCCCCCCCCCCCCC(CCCCCCCCCCCCCC)CO[C@@H]1O[C@H](COP(=O)(O)O)[C@H](OP(=O)(O)O)[C@H](OP(=O)(O)O)[C@H]1OP(=O)(O)O [Example 14, Octasodium 2-tetradecylhexadecyl β-D-galactopyranoside2,3,4,6-tetraphosphate] | 41% | 55% |  |
| Sulfatide [reference compound] |  |  | Inhibition rate (%), myeloperoxidase activity as index of infiltration in neutrocyte ([4]; 0.2 mg/rat i.v., 5 min before CVF (20U/2 ml/kg, tail vein), lung precipitation, Table 2): 50%; Inhibition rate (%), index of bleeding ([5]; 0.2 mg/rat i.v., 5 min before CVF (20U/2 ml/kg, tail vein), hemoglobin absorbance at 541 nm, Table 1): 53%; inflammation inhibition effect [1]: shows inflammation inhibition effect; inflammation inhibition effect [3]: shows inflammation inhibition effect |
| CCCC(CCC)CO[C@@H]1O[C@H](CO)[C@H](O)[C@H](OS(=O)(=O)O)[C@H]1O [Example 4, Sodium 2-pronylpentyl β-D-galactopyranoside 3-sulfate] | 58% | 39% |  |
| CCCCCCCCCCCCCCC(CCCCCCCCCCCCCC)CO[C@@H]1O[C@H](CO)[C@H](O)[C@H](OS(=O)(=O)O)[C@H]1O[C@@H]1O[C@@H](C)[C@@H](O)[C@@H](O)[C@@H]1O [Example 27-1, Sodium 2-tetradecylhexadecyl O-α-L-fucopyranosyl-(1→2)-β-D-galactopyranoside 3-sulfate] | 61% | 65% |  |
| CCCC(CCC)CO[C@@H]1O[C@H](COS(=O)(=O)O)[C@H](O)[C@H](OS(=O)(=O)O)[C@H]1O[C@@H]1O[C@@H](C)[C@@H](O)[C@@H](O)[C@@H]1O [Example 25, Disodium 2-propylpentyl O-α-L-fucopyranosyl-(1→2)-β-D-galactonyranoside 3,6-disulfate] | 50% | 56% |  |
| CCCCCCCCCCCCCCC(CCCCCCCCCCCCCC)CO[C@@H]1O[C@H](COS(=O)(=O)O)[C@@H](O[C@@H]2O[C@H](COS(=O)(=O)O)[C@H](O)[C@H](OS(=O)(=O)O)[C@H]2O)[C@H](O)[C@H]1O [Example 11-2, trisodium 2-tetradecylhexadecyl O-β-D-galactopyranosyl-(1→4)-β-D-glucopyranoside 3',6',6-trisulfate] | 70% | 82% |  |
| CCCCCCCCCCCCCCC(CCCCCCCCCCCCCC)CO[C@@H]1O[C@H](CO)[C@H](OP(=O)(O)O)[C@H](OP(=O)(O)O)[C@H]1O [Example 17, Tetrasodium 2-tetradecylhexadecyl β-D-galactopyranoside 3,4-dinhosphate] | 73% | 74% |  |
| CCCCCCCCCCCCCCCCCCCCCCC(CCCCCCCCCCCCCCCC)CO[C@@H]1O[C@H](CO)[C@H](O)[C@H](OS(=O)(=O)O)[C@H]1O (stereo partly drawn) [Example 8, Sodium 2-hexadecyltetracosyl β-D-galactopyranoside 3-sulfate] | 51% | 53% |  |
| CCCC(CCC)CO[C@@H]1O[C@H](CO)[C@@H](O[C@@H]2O[C@H](CO)[C@H](O)[C@H](OS(=O)(=O)O)[C@H]2O)[C@H](O)[C@H]1O [Example 10-1, Sodium 2-propylpentyl O-β-D-galactopyranosyl-(1→4)-β-D-glucopyranoside 3'-sulfate] | 66% | 65% |  |
| CCCC(CCC)CO[C@@H]1O[C@H](COS(=O)(=O)O)[C@H](O)[C@H](O)[C@H]1O [Example 5, Sodium 2-propylpentyl β-D-galactopyranoside 6-sulfate] | 47% | 52% |  |
| CCCCCCCCCCCCCCC(CCCCCCCCCCCCCC)CO[C@@H]1O[C@H](CO)[C@@H](O[C@@H]2O[C@H](COS(=O)(=O)O)[C@H](O)[C@H](OS(=O)(=O)O)[C@H]2O)[C@H](O)[C@H]1O [Example 11-1, Disodium 2-tetradecylhexadecyl O-β-D-galactopyranosyl-(1→4)-β-D-glucopyranoside 3',6'-disulfate] | 82% | 100% |  |
| CCCC(CCC)CO[C@@H]1O[C@H](CO)[C@@H](O)[C@H](OP(=O)(O)O)[C@H]1OP(=O)(O)O [Example 19, Tetrasodium 2-propylpentyl β-D-glucopyranoside 2,3-diphosphate] | 39% | 43% |  |
| CCCC(CCC)CO[C@@H]1O[C@H](COS(=O)(=O)O)[C@H](OS(=O)(=O)O)[C@H](OS(=O)(=O)O)[C@H]1OS(=O)(=O)O [Example 7-2, tetrasodium 2-propylpentyl β-D-galactopyranoside 2,3,4,6-tetrasulfate] | 42% | 42% |  |
| CCCCCCCCCCCCCCC(CCCCCCCCCCCCCC)CO[C@@H]1O[C@H](CO)[C@@H](O[C@@H]2O[C@H](CO)[C@H](O)[C@H](OS(=O)(=O)O)[C@H]2O)[C@H](O)[C@H]1O [2-tetradesyl hexadesyl O-β-D-galactopyranosyl-(1→4)-β-D-glucopyranoside 3'-sulfate] |  |  | binding specificity to L-selectin [2]: show a binding specificity to L-selectin |
